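Briefly, cells in 96-well plates were exposed to five compound concentrations for 48 h, and endpoints were estimated by linear interpolation. Here, GI50 denotes the concentration required for 50% inhibition of growth.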 Active and inactive are the calls of the source. No stated cut-off is given here; in the data, active = GI50 up to about 1.1 µM and inactive = higher.
How the values were obtained:
Test in all cases: growth of human tumour cells (NCI), 48 h
A549 = test system: A549
COLO 205 = test system: COLO 205
HCC 2998 = test system: HCC 2998
HOP-62 = test system: HOP-62
K562 = test system: K562
KM12 = test system: KM12
LOX IMVI = test system: LOX IMVI
MCF7 = test system: MCF7
NCI-H226 = test system: NCI-H226
NCI/ADR-RES = test system: NCI/ADR-RES
OVCAR-3 = test system: OVCAR-3
RPMI-8226 = test system: RPMI-8226
SF-268 = test system: SF-268
SK-OV-3 = test system: SK-OV-3
SN12C = test system: SN12C
SW-620 = test system: SW-620
TK-10 = test system: TK-10
U-251 = test system: U-251
UO-31 = test system: UO-31
PC-3 = test system: PC-3

SMILES | GI50 (A549) | GI50 (COLO 205) | GI50 (HCC 2998) | GI50 (HOP-62) | GI50 (K562) | GI50 (KM12) | GI50 (LOX IMVI) | GI50 (MCF7) | GI50 (NCI-H226) | GI50 (NCI/ADR-RES) | GI50 (OVCAR-3) | GI50 (RPMI-8226) | GI50 (SF-268) | GI50 (SK-OV-3) | GI50 (SN12C) | GI50 (SW-620) | GI50 (TK-10) | GI50 (U-251) | GI50 (UO-31) | GI50 (PC-3)
CCOC(=O)Nc1cc2c(c(N)n1)N=C(c1ccc(OC)cc1)CN2 | 0.00258 µM (active) | 0.00986 µM (active) | 0.000925 µM (active) | 0.00015 µM (active) | < 0.01 µM (active) | 0.000446 µM (active) | 0.000315 µM (active) | 0.00434 µM (active) | 0.368 µM (active) | 0.00126 µM (active) | 0.00044 µM (active) | < 0.01 µM (active) | 0.00119 µM (active) | 0.0385 µM (active) | 0.00436 µM (active) | < 0.0001 µM (active) | 0.361 µM (active) | < 0.0001 µM (active) | 0.206 µM (active) | –
N#CC(C#N)=NNc1ccc2cn[nH]c2c1 | > 100 µM (inactive) | 25.6 µM (inactive) | – | > 100 µM (inactive) | 15.7 µM (inactive) | > 100 µM (inactive) | 31.4 µM (inactive) | 31.1 µM (inactive) | > 100 µM (inactive) | > 100 µM (inactive) | 23.9 µM (inactive) | 26.2 µM (inactive) | 36.3 µM (inactive) | > 100 µM (inactive) | 40.6 µM (inactive) | 41.1 µM (inactive) | 26.7 µM (inactive) | > 100 µM (inactive) | 14 µM (inactive) | > 100 µM (inactive)
COc1ccc(CC/N=C2\OCc3ccccc32)cc1OC | 46.3 µM (inactive) | 49.3 µM (inactive) | > 100 µM (inactive) | – | 23.4 µM (inactive) | 31.5 µM (inactive) | 41.2 µM (inactive) | 27.7 µM (inactive) | 51.3 µM (inactive) | 67 µM (inactive) | – | – | – | 30.5 µM (inactive) | 69.3 µM (inactive) | 54.5 µM (inactive) | > 100 µM (inactive) | > 100 µM (inactive) | 69 µM (inactive) | 46.9 µM (inactive)
O=c1c2ccccc2nc(-c2ccc(Cl)cc2)n1O | 29.4 µM (inactive) | 34.6 µM (inactive) | – | 9.12 µM (inactive) | 22.9 µM (inactive) | 9.53 µM (inactive) | 1.11 µM (active) | 20 µM (inactive) | 15.5 µM (inactive) | 19.6 µM (inactive) | 40.2 µM (inactive) | 26.9 µM (inactive) | 18.8 µM (inactive) | 28.2 µM (inactive) | 35.7 µM (inactive) | 33.7 µM (inactive) | 21.1 µM (inactive) | 20.8 µM (inactive) | 2.2 µM (inactive) | 33.9 µM (inactive)
CCC(=O)Nc1ccc(NC(C#N)c2cccc(Oc3ccccc3)c2)cc1 (configuration not stated) | 62.5 µM (inactive) | 40.4 µM (inactive) | – | 49.7 µM (inactive) | 27.5 µM (inactive) | 58.6 µM (inactive) | 21.4 µM (inactive) | 35.2 µM (inactive) | 30.3 µM (inactive) | 28.2 µM (inactive) | 52.4 µM (inactive) | 23.1 µM (inactive) | 33.6 µM (inactive) | > 100 µM (inactive) | 51.8 µM (inactive) | 38.7 µM (inactive) | – | – | 42.2 µM (inactive) | 63.4 µM (inactive)
Nc1sc2c(c1C(=O)c1ccc(Cl)c(Cl)c1)CCCC2 | 51.9 µM (inactive) | 32.3 µM (inactive) | 17.3 µM (inactive) | 83.6 µM (inactive) | 25.5 µM (inactive) | 22.3 µM (inactive) | 40.3 µM (inactive) | 18.7 µM (inactive) | > 100 µM (inactive) | – | 60.4 µM (inactive) | 17.8 µM (inactive) | 45.8 µM (inactive) | > 100 µM (inactive) | > 100 µM (inactive) | 35.7 µM (inactive) | 41.9 µM (inactive) | 45 µM (inactive) | 58.2 µM (inactive) | 44.1 µM (inactive)
CC(=N)OC1CC2CCC1(C)C2(C)C (configuration not stated) | > 100 µM (inactive) | > 100 µM (inactive) | > 100 µM (inactive) | > 100 µM (inactive) | > 100 µM (inactive) | > 100 µM (inactive) | > 100 µM (inactive) | > 100 µM (inactive) | > 100 µM (inactive) | – | > 100 µM (inactive) | > 100 µM (inactive) | > 100 µM (inactive) | > 100 µM (inactive) | > 100 µM (inactive) | > 100 µM (inactive) | > 100 µM (inactive) | > 100 µM (inactive) | > 100 µM (inactive) | > 100 µM (inactive)
OCC(O)C(Cl)CCl (configuration not stated) | > 100 µM (inactive) | > 100 µM (inactive) | > 100 µM (inactive) | > 100 µM (inactive) | > 100 µM (inactive) | > 100 µM (inactive) | – | > 100 µM (inactive) | > 100 µM (inactive) | > 100 µM (inactive) | > 100 µM (inactive) | – | > 100 µM (inactive) | > 100 µM (inactive) | > 100 µM (inactive) | > 100 µM (inactive) | > 100 µM (inactive) | > 100 µM (inactive) | > 100 µM (inactive) | > 100 µM (inactive)
NCCNc1ncnc2ccc(Cl)cc12 | 93.8 µM (inactive) | 49.3 µM (inactive) | – | > 100 µM (inactive) | > 100 µM (inactive) | > 100 µM (inactive) | > 100 µM (inactive) | 96.8 µM (inactive) | > 100 µM (inactive) | > 100 µM (inactive) | > 100 µM (inactive) | 96.2 µM (inactive) | 81.1 µM (inactive) | > 100 µM (inactive) | 88.5 µM (inactive) | 72.3 µM (inactive) | 28.6 µM (inactive) | > 100 µM (inactive) | 97.3 µM (inactive) | 75.5 µM (inactive)
O=C(Nc1sccc1S(=O)(=O)c1ccc(Cl)cc1)c1ccc(Cl)cc1Cl | > 95.7 µM (inactive) | > 100 µM (inactive) | – | > 100 µM (inactive) | > 53.3 µM (inactive) | 82.2 µM (inactive) | > 74.6 µM (inactive) | 44.6 µM (inactive) | > 100 µM (inactive) | > 100 µM (inactive) | 28.2 µM (inactive) | 10.7 µM (inactive) | > 100 µM (inactive) | > 100 µM (inactive) | > 100 µM (inactive) | > 100 µM (inactive) | > 100 µM (inactive) | > 78.7 µM (inactive) | > 100 µM (inactive) | > 100 µM (inactive)
CCOC(=O)c1c(CN2CCCC2)n(-c2ccccc2)c2cc(Br)c(O)cc12 | 16 µM (inactive) | 10.5 µM (inactive) | – | 13.3 µM (inactive) | 18.3 µM (inactive) | 16.8 µM (inactive) | 16 µM (inactive) | 21 µM (inactive) | – | 22.4 µM (inactive) | 15.9 µM (inactive) | 16.2 µM (inactive) | 19.9 µM (inactive) | 25.8 µM (inactive) | 16.4 µM (inactive) | 17.7 µM (inactive) | 20.5 µM (inactive) | 16.3 µM (inactive) | 12.1 µM (inactive) | 21.3 µM (inactive)

Source: ChEMBL document CHEMBL1201862, “PubChem BioAssay data set” (2004)
